Measured values as given in patent US12145913B2, “Inhibition of Olig2 activity” (Curtana Pharmaceuticals, Inc., priority 2016, dated 2024).
Where “and” joins values, the source holds several entries; their conditions need not be identical. Equal values may be shown once. Read-outs that look alike come from different tables or passages of the source.

Key:
[1] = test system: GBM4 human glioblastoma cells; experiment: GBM4 viability assay (Cell Titer Glo); format: cell-based
Procedure: Cell culture medium was prepared from a NSA proliferation kit (Neurocult) and NeuroCult supplements (Stemcell Tech Cat. #05751) and treated with 20 μL of 10 μg/mL rh EGF, 10 μL of 10 μg/mL rh bFGF and 10 μL of 0.2% Heparin. In this medium, human glioblastoma cells were cultured in ultra-low attachment tissue culture flasks until 1×10^6 cells ml was achieved (GBM4 and GBM8 are distinct neurosphere cell cultures derived from these human patient tissues). GBM4 and GBM8 cells were dissociated and 10 mL of media containing 4000 human glioblastoma cells per 90 μL were transferred to an ultra-low binding 96-well plate and incubated at 37° C. overnight. On the following day, 10 μL of a 1% DMSO solution of test compound in assay medium was added to wells containing the cell suspension and the mixture incubated at 37° C. for 3 days. At this time, the plate was removed from the incubator and allowed to reach room temperature. After about 30 minutes, 50 μL of Cell Titer Glo solution was added to each well and the plate shaken for 1 minute at low speed. After 10 minutes luminescence was recorded using a Tecan Safire2 reader.
Reduction in luminescence compared to DMSO only control wells was used to determine the percentage inhibition of cell growth. IC50s were calculated using the % inhibition of luminescence for serial dilutions of compounds fitted to a 4-parameter fit within the Prism (San Diego) curve fitting program. Tables 1 (compounds 3-188) and 2 (compounds 190-212) show the GBM4 IC50 and GBM8 IC50 for compounds described herein.

[2] = test system: GBM8 human glioblastoma cells; experiment: GBM8 viability assay (Cell Titer Glo); format: cell-based; conditions: 72 h, luminescence
How it was run: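 Patient-derived GBM4 and GBM8 neurosphere cells, 4000 per well in EGF/bFGF/heparin-supplemented NeuroCult medium, were exposed to compound (added in 1% DMSO solution) for 3 days at 37° C. Growth was read by CellTiter-Glo luminescence versus DMSO wells, and IC50s came from 4-parameter fits of serial dilutions.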

[3] = test system: Human GBM4 glioblastoma flank tumor; experiment: Tumor growth inhibition in mouse flank tumor model, GBM4; format: in vivo; conditions: NSG mice, temozolomide orally plus radiation 1 Gy
Procedure: (§1) The animals were fed ad libitum water (reverse osmosis, 1 ppm Cl) and NIH 31 Modified and Irradiated Lab Diet® consisting of 18.0% crude protein. 5.0% crude fat, and 5.0% crude fiber. The mice were housed on irradiated Enrich-o'Cobs™ bedding in static microisolators on a 12-hour light cycle at 20-22° C. (68-72° F.) and 40-60% humidity.
(§2) Human GBM4 or GBM8 glioblastoma cell lines were maintained in Complete NeuroCult Proliferation Medium containing 20 ng/mL EGF, 10 ng/mL bFGF and 2 μg/mL Heparin. The cells were cultured in ultra low attachment T75 flask (Corning REF-3814) and the resulting neurospheres were dissociated every 4-6 days using the NeuroCult Chemical Dissociation kit (Stemcell Technologies Cat #05707). Cell cultures were maintained in tissue culture flasks in a humidified incubator at 37° C., in an atmosphere of 5% CO2 and 95% air. Cell samples were collected one passage prior to cell implant and preserved in freezing media.
Cells used for implantation were harvested during log phase growth and resuspended in cold PBS containing in 50% Matrigel™ (BD Biosciences). Tumor growth was initiated on Day 1 by subcutaneous injection of GBM4 cells into the right flank of each mouse with 1×10^7 tumor cells (0.1 mL cell suspension) and tumor growth was monitored in four groups (n=8) beginning on Day 12. Groups for treatment included group 1 (vehicle), group 2 (test Olig2 inhibitor), group 3 (treatment with temozolomide and radiation) and group 4 (test Olig2 inhibitor combined with temozolomide and radiation). The tumors were measured with a caliper in two dimensions to monitor size. Tumor size was calculated using the formula. […] Tumor weight may be estimated with the assumption that 1 mg is equivalent to 1 mm^3 of tumor volume Tumors were measured with a caliper twice weekly for the duration of the study Temozolomide (Merck & Co., Lot No. L046487) was administered orally at doses of 5 mg/kg or 10 mg/Kg). […]
The study endpoint was a tumor volume of 2000 mm^3 or Day 152, whichever came first. […] The time to endpoint (TTE) for each animal was calculated with the following equation: […]

[4] = test system: Human GBM8 glioblastoma flank tumor; experiment: Tumor growth inhibition in mouse flank tumor model, GBM8; format: in vivo; conditions: NSG mice, temozolomide orally plus radiation 1 Gy
Procedure: as §1, §2
Cells used for implantation were harvested during log phase growth and resuspended in cold PBS containing in 50% Matrigel™ (BD Biosciences). Tumor growth was initiated on Day 1 by subcutaneous injection of GBM4 cells into the right flank of each mouse with 1×10^7 tumor cells (0.1 mL cell suspension) and tumor growth was monitored in four groups (n=8) beginning on Day 12. Groups for treatment included group 1 (vehicle), group 2 (test Olig2 inhibitor), group 3 (treatment with temozolomide and radiation) and group 4 (test Olig2 inhibitor combined with temozolomide and radiation). The tumors were measured with a caliper in two dimensions to monitor size. Tumor size was calculated using the formula. Tumor Volume (mm^3)=[…]: where w=width and l=length, in mm, of a tumor. Tumor weight may be estimated with the assumption that 1 mg is equivalent to 1 mm^3 of tumor volume Tumors were measured with a caliper twice weekly for the duration of the study Temozolomide (Merck & Co., Lot No. L046487) was administered orally at doses of 5 mg/kg or 10 mg/Kg). Radiation was adminstered with a Faxitron model CP-160 X-ray system. Each animal was immobilized in a live restrainer. Therapy was administered for 1.3 min at 160 KV and 6.0 mA, providing a dose of 1 gray (Gy) for each animal.
The study endpoint was a tumor volume of 2000 mm^3 or Day 152, whichever came first. Each animal was euthanized for tumor progression (TP) when its tumor reached the volume endpoint. The time to endpoint (TTE) for each animal was calculated with the following equation: […]
The data set is comprised of the first observation that exceeded the study endpoint volume and the three consecutive observations that immediately preceded the attainment of the endpoint volume. […] In instances in which the log-transformed calculated TTE preceded the day prior to reaching endpoint or exceeded the day of reaching tumor volume endpoint, a linear interpolation was performed to approximate the TTE. Any animal determined to have died from treatment-related (TR) causes was assigned a TTE value equal to the day of death. […]
Treatment outcome was evaluated from tumor growth delay (TGD), which was defined as the increase in the median TTE for a treatment group compared to the control group: TGD=T−C, expressed in days, or as a percentage of the median TTE of the control group: TGD(%)=T−C/C×100 • T=median TTE for a treatment group, • C=median TTE for the control group.

[5] = Table 3, GBM4 cells, read-out: GBM4 IC50 (Cytotoxicity)
[6] = 72 h, Table 1, 3 days incubation, luminescence, read-out: GBM4 IC50

Compound | IC50 ([2]; Table 1, 3 days incubation) [µM] | further results
Cn1nnc2c(C(N)=O)ncn2c1=O [Temozolomide, reference compound] |  | Temozolomide + radiation (median TTE) [3]: 116.3 days; Temozolomide + radiation (median TTE) [4]: 86.2 days and 78 days
CN(C)CCCNc1ccnc(NC(=O)Nc2ccc(OC(F)(F)F)cc2)n1 [Compound 163, 1-(4-((3-(dimethylamino)propyl)amino)pyrimidin-2-yl)-3-(4-(trifluoromethoxy)phenyl)urea] | 0.5 to 5 | 
CNCCCNc1cc(C2CC2)nc(NC(=O)Nc2ccc(OC(F)(F)F)cc2)n1 [Compound 211, 1-(4-cyclopropyl-6-((3-(methylamino)propyl)amino)pyrimidin-2-yl)-3-(4-(trifluoromethoxy)phenyl)urea] |  | IC50 ([2]; Table 2, 3 days incubation): 0.5 to 5 µM
Cc1cc(N)nc(NC(=O)Nc2ccc3ccccc3c2)n1 [Compound 47, 1-(4-amino-6-methylpyrimidin-2-yl)-3-(naphthalen-2-yl)urea] | < 0.5 | 
Cc1cc(NCC(C)O)nc(NC(=O)Nc2ccc3ccccc3c2)n1 (centres unmarked) [Compound 14] | < 0.5 | 
Cc1cc(NCCCN(C)C)nc(NC(=O)Nc2ccc3ccccc3c2)n1 [Compound 3, 1-(4-((3-(dimethylamino)propyl)amino)-6-methylpyrimidin-2-yl)-3-(naphthalen-2-yl)urea] | < 0.5 | IC50 [1, 6]: < 0.5 µM
Cc1cc(NCCN(C)C)nc(NC(=O)Nc2ccc3ccccc3n2)n1 [Compound 97, 1-(4-((2-(dimethylamino)ethyl)amino)-6-methylpyrimidin-2-yl)-3-(quinolin-2-yl)urea] | 5 to 30 | 
CC(=O)NCCCNc1cc(C)nc(NC(=O)Nc2ccc3ccncc3c2)n1 [Compound 118, N-(3-((2-(3-(isoquinolin-7-yl)ureido)-6-methylpyrimidin-4-yl)amino)propyl)acetamide] | < 0.5 | 
Cc1cc(NCCN(C)C)nc(NC(=O)Nc2ccc3ccncc3c2)n1 [Compound 115, 1-(4-((2-(dimethylamino)ethyl)amino)-6-methylpyrimidin-2-yl)-3-(isoquinolin-7-yl)urea] | 0.5 to 5 | 
Cc1cc(NCCCCN(C)C)nc(NC(=O)Nc2ccc3ccccc3c2)n1 [Compound 17] | < 0.5 | 
Cc1cc(NCCC(=O)N(C)C)nc(NC(=O)Nc2ccc3ccccc3c2)n1 [Compound 42, N,N-dimethyl-3-((6-methyl-2-(3-(naphthalen-2-yl)ureido)pyrimidin-4-yl)amino)propanamide] | 0.5 to 5 | 
Cc1cc(NCCCN)nc(NC(=O)Nc2ccc3ccccc3n2)n1 [Compound 99, 1-(4-((3-aminopropyl)amino)-6-methylpyrimidin-2-yl)-3-(quinolin-2-yl)urea] | 0.5 to 5 | 
CNc1cc(C)nc(NC(=O)Nc2ccc(OC(F)(F)F)cc2)n1 [Compound 144, 1-(4-methyl-6-(methylamino)pyrimidin-2-yl)-3-(4-(trifluoromethoxy)phenyl)urea] | < 0.5 | 

Further lines, with some results ahead:

IC50 ([2]; Table 1, 3 days incubation) [µM] | Compound | further results
< 0.5 | Cc1cc(NCCNS(C)(=O)=O)nc(NC(=O)Nc2ccc3ccccc3c2)n1 [Compound 36, N-(2-((6-methyl-2-(3-(naphthalen-2-yl)ureido)pyrimidin-4-yl)amino)ethyl)methanesulfonamide] | IC50 [1, 5]: 0.04 µM
< 0.5 | CC(=O)NCCNc1cc(C)nc(NC(=O)Nc2ccc3ccccc3c2)n1 [Compound 35, N-(2-((6-methyl-2-(3-(naphthalen-2-yl)ureido)pyrimidin-4-yl)amino)ethyl)acetamide] | IC50 [1, 5]: 0.14 µM
< 0.5 | CCNc1cc(C)nc(NC(=O)Nc2ccc3ccccc3c2)n1 [Compound 19] | IC50 [1, 5]: 0.06 µM
< 0.5 | Cc1cc(NCCCN)nc(NC(=O)Nc2ccc3ccccc3c2)n1 [Compound 4, 1-(4-((3-aminopropyl)amino)-6-methylpyrimidin-2-yl)-3-(naphthalen-2-yl)urea] | IC50 [1, 6]: < 0.5 µM
< 0.5 | CC(=O)NCCCNc1cc(C)nc(NC(=O)Nc2ccc3ccccc3c2)n1 [Compound 34, N-(3-((6-methyl-2-(3-(naphthalen-2-yl)ureido)pyrimidin-4-yl)amino)propyl)acetamide] | 
< 0.5 | CC(=O)NCCNc1cc(C)nc(NC(=O)Nc2ccc(OC(C)C)cc2)n1 [Compound 140, N-(2-((2-(3-(4-isopropoxyphenyl)ureido)-6-methylpyrimidin-4-yl)amino)ethyl)acetamide] | 
< 0.5 | CCNc1cc(C)nc(NC(=O)Nc2ccc(-c3ccccc3)cc2)n1 [Compound 126, 1-([1,1′-biphenyl]-4-yl)-3-(4-(ethylamino)-6-methylpyrimidin-2-yl)urea] | 
